Laboratory results as given in PMC3577938 (Organic & biomolecular chemistry, 2013).

Key:
[1] = system: New Zealand White rabbits; experiment: Rabbit immunization with bovine α-lactalbumin and antigen-specific ELISA; type: in vivo; details: compared with 8c
[2] = system: human peripheral blood mononuclear cells (hPBMC); experiment: Cytokine induction in human PBMCs; type: cell-based; details: human PBMCs stimulated 12 h
[3] = system: human TLR7 or human TLR8; type: cell-based; details: for agonistic activity (in words): primary TLR8/TLR7 reporter gene assays, receptor not given; for TLR8 versus TLR7 selectivity (in words): primary reporter gene screens
[4] = molecular target: T1, human TLR7 (Homo sapiens, UniProt Q9NYK1); experiment: Human TLR7-specific reporter gene assay; type: cell-based; details: EC50 in human TLR7-specific reporter gene assay; Inactive = EC50 >100 μM
T1 sequence (Q9NYK1 27-1049): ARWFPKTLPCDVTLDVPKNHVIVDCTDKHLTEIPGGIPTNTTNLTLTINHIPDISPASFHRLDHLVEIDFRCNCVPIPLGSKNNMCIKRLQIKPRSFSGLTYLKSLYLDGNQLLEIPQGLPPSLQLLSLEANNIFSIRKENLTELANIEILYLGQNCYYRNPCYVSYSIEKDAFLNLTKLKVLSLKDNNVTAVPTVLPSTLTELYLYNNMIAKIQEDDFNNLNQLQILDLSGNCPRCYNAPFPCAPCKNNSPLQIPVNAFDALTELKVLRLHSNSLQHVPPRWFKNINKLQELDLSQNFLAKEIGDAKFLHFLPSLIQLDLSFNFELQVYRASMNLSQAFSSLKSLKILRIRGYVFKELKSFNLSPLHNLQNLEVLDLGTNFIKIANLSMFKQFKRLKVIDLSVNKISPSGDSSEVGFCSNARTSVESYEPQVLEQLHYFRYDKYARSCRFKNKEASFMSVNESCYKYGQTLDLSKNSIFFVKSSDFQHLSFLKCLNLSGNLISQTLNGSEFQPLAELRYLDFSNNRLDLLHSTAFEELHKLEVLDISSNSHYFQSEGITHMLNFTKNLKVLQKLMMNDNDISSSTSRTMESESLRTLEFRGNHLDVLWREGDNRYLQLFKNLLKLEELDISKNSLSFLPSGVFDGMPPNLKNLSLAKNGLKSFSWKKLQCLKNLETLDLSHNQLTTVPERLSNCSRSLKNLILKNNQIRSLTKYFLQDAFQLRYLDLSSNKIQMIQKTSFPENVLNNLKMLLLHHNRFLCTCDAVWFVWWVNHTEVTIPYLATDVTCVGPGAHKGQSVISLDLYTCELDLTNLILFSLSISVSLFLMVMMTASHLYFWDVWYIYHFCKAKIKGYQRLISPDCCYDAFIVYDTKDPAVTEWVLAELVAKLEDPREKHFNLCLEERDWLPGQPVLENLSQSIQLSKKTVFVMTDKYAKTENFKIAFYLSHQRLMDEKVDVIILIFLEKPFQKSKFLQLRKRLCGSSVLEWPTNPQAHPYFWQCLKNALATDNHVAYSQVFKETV

[5] = molecular target: T2, human TLR8 (Homo sapiens, UniProt Q9NR97); experiment: Human TLR8-specific reporter gene assay; type: cell-based; details: for Agonistic Activity (μM) TLR8: EC50 in human TLR8-specific reporter gene assay, Inactive = EC50 >100 μM
T2 sequence (Q9NR97 27-1041): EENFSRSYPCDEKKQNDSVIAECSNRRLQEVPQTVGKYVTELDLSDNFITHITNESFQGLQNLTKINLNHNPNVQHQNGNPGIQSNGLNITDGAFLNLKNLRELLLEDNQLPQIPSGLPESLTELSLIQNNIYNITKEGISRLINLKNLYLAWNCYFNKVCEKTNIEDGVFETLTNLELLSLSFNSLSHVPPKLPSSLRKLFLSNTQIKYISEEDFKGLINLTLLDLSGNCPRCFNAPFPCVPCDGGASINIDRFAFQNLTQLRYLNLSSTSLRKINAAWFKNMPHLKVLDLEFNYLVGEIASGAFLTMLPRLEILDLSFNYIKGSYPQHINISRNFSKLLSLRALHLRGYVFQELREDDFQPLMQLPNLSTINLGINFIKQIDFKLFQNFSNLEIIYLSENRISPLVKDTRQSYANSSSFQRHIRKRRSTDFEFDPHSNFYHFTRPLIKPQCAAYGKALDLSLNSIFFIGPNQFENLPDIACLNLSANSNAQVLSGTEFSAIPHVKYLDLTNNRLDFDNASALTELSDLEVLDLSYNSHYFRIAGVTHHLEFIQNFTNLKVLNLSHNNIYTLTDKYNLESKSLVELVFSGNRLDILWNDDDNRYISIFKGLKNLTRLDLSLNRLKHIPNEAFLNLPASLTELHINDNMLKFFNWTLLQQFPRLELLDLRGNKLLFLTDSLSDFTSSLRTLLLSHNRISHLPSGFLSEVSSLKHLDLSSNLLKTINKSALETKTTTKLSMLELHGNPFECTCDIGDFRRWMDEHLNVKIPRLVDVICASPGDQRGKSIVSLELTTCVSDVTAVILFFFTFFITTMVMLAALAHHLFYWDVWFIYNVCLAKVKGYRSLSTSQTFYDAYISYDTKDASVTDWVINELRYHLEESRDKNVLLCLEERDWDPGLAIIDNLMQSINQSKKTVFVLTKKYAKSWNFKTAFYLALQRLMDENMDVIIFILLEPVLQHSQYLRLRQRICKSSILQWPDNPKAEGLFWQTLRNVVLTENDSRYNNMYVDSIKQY

Row | Structure (SMILES) | consistency of adjuvanticity (confidence intervals of antibody titers) [1] | proinflammatory cytokine induction in hPBMCs (in words) [2] | agonistic activity (in words) [3] | TLR8 versus TLR7 selectivity (in words) [3] | Agonistic Activity (μM) TLR7 [4] | Agonistic Activity (μM) TLR8 [5] | TLR8-agonistic potency/activity (in words) ([5]; hTLR8 reporter gene assay)
1 | CCCCc1nc2c(N)nc3ccccc3c2s1 [Compound 8d, 2-butylthiazolo[4,5-c]quinolin-4-amine] | greater consistency and uniformity | – | – | – | – | – | –
2 | CC(C)Cc1nc2c(N)nc3ccccc3c2s1 [Compound 8j, 2-isobutylthiazolo[4,5-c]quinolin-4-amine] | – | inferior in their cytokine induction profiles | well tolerated | substantially more TLR8-selective | – | – | –
3 | CC(C)(C)Cc1nc2c(N)nc3ccccc3c2s1 [Compound 8k, 2-neopentylthiazolo[4,5-c]quinolin-4-amine] | – | – | inactive | – | Inactive | Inactive | –
4 | CC(C)CCc1nc2c(N)nc3ccccc3c2s1 [Compound 8l, 2-isopentylthiazolo[4,5-c]quinolin-4-amine] | – | – | entirely inactive | – | Inactive | Inactive | –
5 | CC(C)(C)CCc1nc2c(N)nc3ccccc3c2s1 [Compound 8m, 2-(3,3-dimethylbutyl)thiazolo[4,5-c]quinolin-4-amine] | – | – | inactive | – | Inactive | Inactive | –
6 | CC[C@H](C)c1nc2c(N)nc3ccccc3c2s1 [Compound 8n, (S)-2-(sec-butyl)thiazolo[4,5-c]quinolin-4-amine] | – | inferior in their cytokine induction profiles | well tolerated | substantially more TLR8-selective | – | – | –
7 | CC[C@H](C)Cc1nc2c(N)nc3ccccc3c2s1 [Compound 8o, (S)-2-(2-methylbutyl)thiazolo[4,5-c]quinolin-4-amine] | – | inferior in their cytokine induction profiles | active | substantially more TLR8-selective | – | – | –
8 | CCCc1nc2c(N)nc3ccc([N+](=O)[O-])cc3c2s1 [Compound 9, 8-nitro-2-propylthiazolo[4,5-c]quinolin-4-amine] | – | – | inactive | – | Inactive | Inactive | –
9 | CCCCCCNc1ccc2nc(N)c3nc(CCC)sc3c2c1 [Compound 13a, N^8-hexyl-2-propylthiazolo[4,5-c]quinoline-4,8-diamine] | – | – | inactive | – | Inactive | Inactive | –
10 | CCCC(=O)Nc1ccc2nc(N)c3nc(CCC)sc3c2c1 [Compound 13b, N-(4-amino-2-propylthiazolo[4,5-c]quinolin-8-yl)butyramide] | – | – | inactive | – | Inactive | Inactive | –
11 | CCCc1nc2c(N)nc3ccc(Br)cc3c2s1 [Compound 14, 8-bromo-2-propylthiazolo[4,5-c]quinolin-4-amine] | – | – | inactive | – | Inactive | Inactive | –
12 | CCCCNc1nc2ccccc2c2sc(CCC)nc12 [Compound 15a, N-butyl-2-propylthiazolo[4,5-c]quinolin-4-amine] | – | – | devoid of any agonistic activity | – | Inactive | Inactive | –
13 | CCCCCCNc1nc2ccccc2c2sc(CCC)nc12 [Compound 15b, N-hexyl-2-propylthiazolo[4,5-c]quinolin-4-amine] | – | – | devoid of any agonistic activity | – | Inactive | Inactive | –
14 | CCCc1nc2c(NC=O)nc3ccccc3c2s1 [Compound 15d, N-(2-propylthiazolo[4,5-c]quinolin-4-yl)formamide] | – | near-complete loss of activity | active | – | – | – | comparable to that of 8c
15 | CCCC(=O)Nc1nc2ccccc2c2sc(CCC)nc12 [Compound 15f, N-(2-propylthiazolo[4,5-c]quinolin-4-yl)butyramide] | – | – | active | – | Inactive | – | –
16 | CCCCCCCC(=O)Nc1nc2ccccc2c2sc(CCC)nc12 [Compound 15g, N-(2-propylthiazolo[4,5-c]quinolin-4-yl)octanamide] | – | – | inactive | – | Inactive | Inactive | –
17 | CCCCCCCCCCCCCCCC(=O)Nc1nc2ccccc2c2sc(CCC)nc12 [Compound 15h, N-(2-propylthiazolo[4,5-c]quinolin-4-yl)palmitamide] | – | – | inactive | – | Inactive | Inactive | –
18 | CCCc1nc2c(NC(=O)c3ccccc3)nc3ccccc3c2s1 [Compound 15i, N-(2-propylthiazolo[4,5-c]quinolin-4-yl)benzamide] | – | – | entirely inactive | – | Inactive | Inactive | –
19 | CCCc1nc2c(NC(N)=O)nc3ccccc3c2s1 [Compound 15q, 1-(2-propylthiazolo[4,5-c]quinolin-4-yl)urea] | – | – | inactive | – | Inactive | Inactive | –
20 | CCCc1nc2c(NC(=N)N)nc3ccccc3c2s1 [Compound 17, 1-(2-propylthiazolo[4,5-c]quinolin-4-yl)guanidine] | – | – | inactive | – | Inactive | Inactive | –
21 | CCCCc1nc2c(NC(C)=O)nc3ccccc3c2s1 [Compound 18b, N-(2-butylthiazolo[4,5-c]quinolin-4-yl)acetamide] | – | – | selective loss of activity | – | Inactive | Inactive | –
